Series [1] concerns the target T1, human farnesoid X receptor (Homo sapiens, UniProt Q96RI1).
T1 construct: CMX-farnesoid X receptor (full length human farnesoid X receptor); expressed in transfected cells; host or cells: CV-1 African Green Monkey Kidney cells
T1 sequence (Q96RI1 1-472 isoform Q96RI1-2): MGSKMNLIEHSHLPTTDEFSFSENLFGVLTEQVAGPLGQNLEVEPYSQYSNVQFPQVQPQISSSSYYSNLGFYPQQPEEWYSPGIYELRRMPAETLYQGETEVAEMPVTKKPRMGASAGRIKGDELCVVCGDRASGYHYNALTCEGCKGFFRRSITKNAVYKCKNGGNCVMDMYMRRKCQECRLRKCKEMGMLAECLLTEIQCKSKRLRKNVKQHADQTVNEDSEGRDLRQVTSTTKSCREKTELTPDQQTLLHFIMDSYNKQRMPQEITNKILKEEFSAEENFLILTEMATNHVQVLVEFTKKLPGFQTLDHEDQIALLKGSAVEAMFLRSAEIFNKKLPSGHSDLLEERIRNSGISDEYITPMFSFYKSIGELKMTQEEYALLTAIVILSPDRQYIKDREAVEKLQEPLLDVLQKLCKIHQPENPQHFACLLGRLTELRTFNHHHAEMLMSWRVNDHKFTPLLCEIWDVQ
T1 sequence (P19793 1-462 partner): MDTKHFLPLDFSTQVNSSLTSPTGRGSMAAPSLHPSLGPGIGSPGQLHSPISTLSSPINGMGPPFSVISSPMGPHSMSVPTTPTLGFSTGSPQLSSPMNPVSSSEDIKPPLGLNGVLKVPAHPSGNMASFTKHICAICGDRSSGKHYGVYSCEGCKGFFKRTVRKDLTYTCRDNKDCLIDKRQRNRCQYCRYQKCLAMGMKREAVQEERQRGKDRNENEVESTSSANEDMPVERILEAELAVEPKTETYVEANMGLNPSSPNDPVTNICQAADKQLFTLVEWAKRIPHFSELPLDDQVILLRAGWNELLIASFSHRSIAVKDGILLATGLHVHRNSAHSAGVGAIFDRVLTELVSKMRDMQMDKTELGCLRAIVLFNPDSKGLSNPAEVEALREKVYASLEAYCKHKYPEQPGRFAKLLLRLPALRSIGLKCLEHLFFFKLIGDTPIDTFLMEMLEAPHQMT
Put plainly: FXR in vitro assays (farnesoid X receptor/ECREx7 co-transfection assay, TR-FRET assay), Table I. The settings on record: for Emax: read-out: % Efficacy. In kind it is cell-based. In a few lines:
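CV-1 monkey kidney cells transfected for an FXR/ECREx7 luciferase co-transfection reporter; luciferase read 18-20 h later in lysates. 8-point dose-response at ½-log spacing, 4 wells per point; EC50/IC50 from four-parameter Hill fit, averaged over at least 3 independent experiments.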
In general terms: TR-FRET usually uses a lanthanide donor and a delayed reading to cut background.

The nature of series [2]: physchem. The conditions noted are these: pH 7.4, aqueous buffer, kinetic from dmso stock. The method, then: The kinetic solubility of test compounds in buffer was evaluated using a 96 well filtration plate format. A 500 μM assay solution in PBS, pH7.4 (or other assay buffer, as needed) was generated form a DMSO stock solution (up to 10 mM). Samples were transferred to a 96 Millipore MultiScreen HTS 96-well Filter plate (Cat# MSSLBPC10) mixed by shaking for 1.5 hours and processed by filtration prior to quantitation by HPLC-UV. Amiodarone and testosterone were used as reference controls.

[3] abbreviates: agonist activity, one or more of the in vitro assays, read-out: EC50.

Converted amounts (≈) assume the structure as drawn. Where two headings read alike, the source gives them in different places.

As a reminder, the EC50 is the concentration giving half of the maximal effect. What is called kinetic solubility is solubility judged after dilution from a stock solution rather than from solid. With `CCN(CC)C1CCN(C(=O)N2C=C(C(=O)OC(C)C)c3[nH]c4ccccc4c3C(C)(C)C2)CC1` [Example 33, 1-methylethyl 3-{[4-0 (diethylamino)piperidin-1-yl]carbonyl}-1,1-dimethyl-1,2,3,6-tetrahydroazepino[4,5-b]indole-5-carboxylate], the concentration giving a half-maximal response (EC50) in series [1] (setting [3]) fell in the range of 1000 to 10000 nM. The Emax in series [1] fell in the range of 60 to 80%. This molecule also registered a kinetic solubility at 1.5 h in series [2] above 10 µM.
For the molecule `CC(C)OC(=O)C1=CN(C(=O)c2cccc(OCc3ccccc3)c2)CC(C)(C)c2c1[nH]c1ccccc21` [Example 127, 1-methylethyl 1,1-dimethyl-3-({3-[(phenylmethyl)oxy]phenyl}carbonyl)-1,2,3,6-tetrahydroazepino[4,5-b]indole-5-carboxylate], in series [1] (setting [3]), the EC50 lay in the range of 10 to 100 nM. Moreover, the Emax in series [1] is above 100%. For the same molecule, in series [2], the kinetic solubility at 1.5 h fell in the range of 1 to 10 µM (≈ 0.509 to 5.09 µg/mL).
For `CC(C)OC(=O)C1=CN(C(=O)c2ccc(F)c(C(F)(F)F)c2)CC(C)(C)c2c1[nH]c1ccccc21` [Example 83, 1-methylethyl 3-{[4-fluoro-3-(trifluoromethyl)phenyl]car-bonyl}-1,1-dimethyl-1,2,3,6-tetrahydroazepino[4,5-b]indole-5-carboxylate], the EC50 in series [1] (setting [3]) was 10 to 100 nM. In series [1], the Emax was above 100%. The molecule further came in with a kinetic solubility at 1.5 h in series [2] of 1 to 10 µM (≈ 0.488 to 4.88 µg/mL).
Take `CC(C)OC(=O)C1=CN(C(=O)N2CCC(N3CCCC3)CC2)CC(C)(C)c2c1[nH]c1ccccc21` [Example 28, 1-methylethyl 1,1-dimethyl-3[(4-pyrrolidin-1-ylpiperidin-1-yl)carbonyl]-1,2,3,6-tetrahydroazepino[4,5-b]indole-5-carboxylate]: the EC50 in series [1] (setting [3]) fell in the range of 1000 to 10000 nM. The Emax in series [1] is 80 to 100%. The molecule further came in with a kinetic solubility at 1.5 h in series [2] above 10 µM.
Turning to `CC(C)OC(=O)C1=CN(C(=O)c2cccc(OCCN(C)C)c2)CC(C)(C)c2c1[nH]c1ccccc21` [Example 140, 1-methylethyl 3-[(3-{[2-(dimethylamino)ethyl]oxy}phenyl)carbonyl]-1,1-dimethyl-1,2,3,6-tetrahydroazepino[4,5-b]indole-5-carboxylate], the Emax in series [1] is above 100%. Also, in series [2], the kinetic solubility at 1.5 h is above 10 µM.
As for `CC(C)OC(=O)C1=CN(C(=O)NC2CCCNC2)CC(C)(C)c2c1[nH]c1ccccc21` (stereo not shown) [Example 56, 1-methylethyl 1,1-dimethyl-3-[(piperidin-3-ylamino)carbonyl]-1,2,3,6-tetrahydro azepino[4,5-b]indole-5-carboxylate], the EC50 in series [1] (setting [3]) was in the range of 1000 to 10000 nM. The Emax in series [1] is below 40%. The kinetic solubility at 1.5 h in series [2] is above 10 µM.
In the case of `CC(C)OC(=O)C1=CN(C(=O)N2CCC[C@@H](CN(C)C)C2)CC(C)(C)c2c1[nH]c1ccccc21` [Example 50, 1-methylethyl 3-({(3S)-3-[(dimethylamino)methyl]piperidin-1-yl}carbonyl)-1,1-dimethyl-1,2,3,6-tetrahydroazepino[4,5-b]indole-5-carboxylate], the EC50 in series [1] (setting [3]) lay within 1000 to 10000 nM. For the same molecule, the Emax in series [1] lay in the range of 60 to 80%. Further, the solubility (kinetic) at 1.5 h in series [2] is above 10 µM.
Consider `CC(C)OC(=O)C1=CN(C(=O)c2ccccc2OC(F)(F)F)CC(C)(C)c2c1[nH]c1ccccc21` [Example 70, 1-methylethyl 1,1-dimethyl-3-({2-[(trifluoromethyl)oxy]phenyl}carbonyl)-1,2,3,6-tetrahydroazepino[4,5-b]indole-5-carboxylate], for which the EC50 in series [1] (setting [3]) lay in the range of 100 to 1000 nM. The Emax in series [1] is above 100%. In series [2], this molecule showed a solubility (kinetic) at 1.5 h of 1 to 10 µM (≈ 0.486 to 4.86 µg/mL).
In the case of `CC(C)OC(=O)C1=CN(C(=O)c2ccc(F)c(F)c2)CC(C)(C)c2c1[nH]c1cc(OC(=O)NCCN(C)C)ccc21` [Example 93, 1-methylethyl 3-[(3,4-difluorophenyl)carbonyl]-8-[({[2-(dimethylamino)ethyl]amino}carbonyl)oxy]-1,1-dimethyl-1,2,3,6-tetrahydroazepino[4,5-b]indole-5-carboxylate], in series [1], the EC50 fell in the range of 10 to 100 nM and the Emax was above 100%. Further, the solubility (kinetic) at 1.5 h in series [2] was above 10 µM.
As to `CC(=O)N1CCN(Cc2cccc(C(=O)N3C=C(C(=O)OC(C)C)c4[nH]c5ccccc5c4C(C)(C)C3)c2)CC1` [Example 146, 1-methylethyl 3-({3-[(4-acetylpiperazin-1-yl)methyl]phenyl}carbonyl)-1,1-dimethyl-1,2,3,6-tetrahydroazepino[4,5-b]indole-5-carboxylate], the EC50 in series [1] (setting [3]) lay within 100 to 1000 nM. Besides, the Emax in series [1] is above 100%. Further, the kinetic solubility at 1.5 h in series [2] is 1 to 10 µM (≈ 0.543 to 5.43 µg/mL).
For the molecule `CC(C)OC(=O)C1=CN(C(=O)N2CCC[C@H](CN(C)C)C2)CC(C)(C)c2c1[nH]c1ccccc21` [Example 51, 1-methylethyl 3-({(3R)-3-[(dimethylamino)methyl]piperidin-1-yl}carbonyl)-1,1-dimethyl-1,2,3,6-tetrahydroazepino[4,5-b]indole-5-carboxylate], the EC50 in series [1] (setting [3]) lay in the range of 1000 to 10000 nM. Also, the Emax in series [1] is above 100%. Moreover, in series [2], the solubility (kinetic) at 1.5 h is above 10 µM.
As to `CC(C)OC(=O)C1=CN(C(=O)c2ccc(C(F)(F)F)c(F)c2F)CC(C)(C)c2c1[nH]c1ccccc21` [Example 138, 1-methylethyl 3-{[2,3-difluoro-4-(trifluoromethyl)phenyl]car-bonyl}-1,1-dimethyl-1,2,3,6-tetrahydroazepino[4,5-b]indole-5-carboxylate], the EC50 in series [1] (setting [3]) was 10 to 100 nM. In series [1], the Emax was above 100%. In series [2], this molecule returned a kinetic solubility at 1.5 h of 0.1 to 1 µM (≈ 0.0506 to 0.506 µg/mL).
For the molecule `CC(C)OC(=O)C1=CN(C(=O)N2CCCC(CN3CCOCC3)C2)CC(C)(C)c2c1[nH]c1ccccc21` (stereo not shown) [Example 53, 1-methylethyl 1,1-dimethyl-3{[3-(morpholin-4-ylmethyl)piperidin-1-yl]carbonyl}-1,2,3,6-tetrahydroazepino [4,5-b]indole-5-carboxylate], the EC50 in series [1] (setting [3]) fell in the range of 100 to 1000 nM. Besides, in series [1], the Emax is above 100%. In series [2], the kinetic solubility at 1.5 h was above 10 µM.
In the case of `C[C@]12CC[C@H]3[C@@H](CCC4=CC(=O)CC[C@@]43C)[C@@H]1CC[C@@H]2O` [testosterone, reference compound], the solubility (kinetic) in series [2] is around 330 µM (≈ 95.2 µg/mL).
The molecule `CC(C)OC(=O)C1=CN(C(=O)c2cccc(OCCN3CCCCC3)c2)CC(C)(C)c2c1[nH]c1ccccc21` [Example 159, 1-methylethyl 1,1-dimethyl-3-({3-[(2-piperidin-1-ylethyl)oxy]phenyl}carbonyl)-1,2,3,6-tetrahydroazepino[4,5-b]indole-5-carboxylate] came in with a kinetic solubility at 1.5 h in series [2] of 1 to 10 µM (≈ 0.53 to 5.3 µg/mL).
Consider `CC(C)OC(=O)C1=CN(C(=O)c2ccc(OCCN3CCOCC3)cc2)CC(C)(C)c2c1[nH]c1ccccc21` [Example 181, 1-methylethyl 1,1-dimethyl-3-({4-[(2-morpholin-4-ylethyl)oxy]phenyl}carbonyl)-1,2,3,6-tetrahydroazepino[4,5-b]indole-5-carboxylate], for which the solubility (kinetic) at 1.5 h in series [2] fell in the range of 1 to 10 µM (≈ 0.532 to 5.32 µg/mL).
As for `CC(C)OC(=O)C1=CN(C(=O)c2cccc(CN3CCN(C(=O)OC(C)(C)C)CC3)c2)CC(C)(C)c2c1[nH]c1ccccc21` [Example 166, 1-methyethyl 3-({3-[(4-{[(1,1-dimethylethyl)oxy]carbonyl}piperazin-1-yl)methyl]phenyl}carbonyl)-1,1-dimethyl-1,2,3,6-tetrahydroazepino[4,5-b]indole-5-carboxylate], in series [1] (setting [3]), the EC50 was 100 to 1000 nM. Moreover, the Emax in series [1] was above 100%.
Taken in the same sequence, the figures for `CC(C)OC(=O)C1=CN(C(=O)c2cccc(CN(C)C)c2)CC(C)(C)c2c1[nH]c1ccccc21` [Example 108, 1-methylethyl 3-({3-[(dimethylamino)methyl]phenyl}-carbonyl)-1,1-dimethyl-1,2,3,6-tetrahydroazepino[4,5-b]indole-5-carboxylate] were 100 to 1000 nM and above 100%.
For `CC(C)OC(=O)C1=CN(C(=O)c2cccc(CN3CCOCC3)c2)CC(C)(C)c2c1[nH]c1ccccc21` [Example 125, 1-methylethyl 1,1-dimethyl-3-{[3-(morpholin-4-ylmethyl)phenyl]carbonyl}-1,2,3,6-tetrahydroazepino[4,5-b]indole-5-carboxylate], the Emax in series [1] was above 100%.
